Molecules are shown by their SMILES. Where a SMILES comes first, the peptide text is derived from it. The star is where a group is joined. Palmitoyl = CCCCCCCCCCCCCCCC(=O)*

The nature of one data set: Solubility in water. Type of data set: physicochemical.
The nature of data set [1]: Isothermal titration calorimetry of heparin into HBPA solution. To be noted: ITC, heparin titrated into HBPA in water, fit for a single type of binding site. From the text:
Isothermal titration calorimetry was used to titrate increments of heparin independently into both the HBPAs and measured the heat released upon binding as a function of the molar ratio. The data obtained was integrated and fitted to a nonlinear function as previously described (Fromm, J. R., et al, “Differences in the Interaction of Heparin with Arginine and Lysine and the Importance of These Basic-Amino-Acids in the Binding of Heparin to Acidic Fibroblast Growth-Factor” Arch. Biochem. Biophys. 323 (1997) 279) to obtain an association constant of 10^7 in both cases (see FIGS. 3E and 3F). Despite similarity in their binding constants, the binding interaction of HBPA-1 and HBPA-2 were energetically very different. […] Such results can be explained with reference to their respective structures. HBPA-1 has hydrophobic residues on the periphery of its peptide chain and the increase in entropy is possibly due to displacement of solvent water molecules from these residues upon heparin interaction.
Characterization of the self-assembly. […] The images were analyzed using the Leica LCS imaging software. […] A frequency sweep experiment was performed at 3% strain with a ten-minute wait time (both determined by independently performing an amplitude sweep and a time strain experiment) to obtain 17 data points between angular frequencies of 0.1 to 10 rad/s. […]

In the case of `CCCCCCCCCCCCCCCC(=O)N[C@@H](C)C(=O)N[C@@H](C)C(=O)N[C@@H](C)C(=O)N[C@@H](C)C(=O)NCC(=O)NCC(=O)NCC(=O)N[C@@H](CC(C)C)C(=O)N[C@@H](CC(C)C)C(=O)NCC(=O)N[C@@H](C)C(=O)N[C@@H](CCCNC(=N)N)C(=O)N[C@@H](CCCCN)C(=O)N[C@@H](CCCCN)C(=O)N[C@@H](CCCCN)C(N)=O` [HBPA-2] (Palmitoyl-AAAAGGGLLGARKKK-NH2), in the data set “Solubility in water”, the solubility in water result is given as “readily soluble in water”. The association constant in data set [1] was 10^7.
The like results for `CCCCCCCCCCCCCCCC(=O)N[C@@H](C)C(=O)N[C@@H](C)C(=O)N[C@@H](C)C(=O)N[C@@H](C)C(=O)NCC(=O)NCC(=O)NCC(=O)N[C@@H](CC(C)C)C(=O)N[C@@H](CCCNC(=N)N)C(=O)N[C@@H](CCCCN)C(=O)N[C@@H](CCCCN)C(=O)N[C@@H](CC(C)C)C(=O)NCC(=O)N[C@@H](CCCCN)C(=O)N[C@@H](C)C(N)=O` [HBPA-1] (Palmitoyl-AAAAGGGLRKKLGKA-NH2) were, in that order, “readily soluble in water” and 10^7.

The record behind these values is US7851445B2, “Angiogenic heparin-binding epitopes, peptide amphiphiles, self-assembled compositions and related methods of use” (Northwestern University, priority 2005, dated 2010).
